Here are results for 1 substance from PMC10178127, “Immunomodulatory Effects of the Pea Defensin Psd1 in the Caco-2/Immune Cells Co-Culture upon Candida albicans Infection” (International Journal of Molecular Sciences, 2023).

The subject of the test is C. albicans v47a3. As to the kind of experiment: Antifungal activity, microdilution method. The class given is cell-based, Candida albicans. How it is done:
Antifungal activity of recombinant Psd1 against C. albicans v47a3 was tested by the microdilution method using 96-well microplates mainly as described for this defensin in [15]. Yeast cells in half-modified YPD broth at a final concentration of 10^4 cells/mL were used. Final Psd1 concentrations in the wells were 100, 50, 25, 12.5, 6.25, 3.125, and 1.56 μM. Plates were incubated at 30 °C for 24 h. Yeast growth was estimated using an inverted microscope as well as by measuring the optical density at 540 nm. The percentage of growth inhibition was defined as growth inhibition(%) = ((Acontrol − Asample)/Acontrol) × 100%. All of the experiments were performed twice in triplicate.
In general terms: In broth dilution the organism is exposed to a series of concentrations in liquid medium.

On to “Psd1: pea defensin from Pisum sativum (UNIPROT P81929), recombinant peptide overexpressed in Escherichia coli (KTCEHLADTYRGVCFTNASCDDHCKNKAHLISGTCHNWKCFCTQNC; UniProt P81929 1-46, looked up)”, for which, where the note is “C. albicans v47a3, 10^4 cells/mL, half-modified YPD broth, 30 °C, 24 h, OD 540 nm, twice in triplicate, read-out: concentration of 50% growth inhibition of yeast cells”, the IC50 amounted to 25 µM. The “effect on the morphology of the fungus” value (C. albicans v47a3, inverted microscope) is recorded as “did not affect the morphology of the fungus”.
